According to US20230364044A1, “Methods of Treating or Preventing Acute Respiratory Distress Syndrome” (YALE UNIVERSITY, priority 2018, published 2023):

Legend:
[1] = tested on: WT mice (hyperoxia-induced lung injury); experiment: Hyperoxia-induced lung injury in mice, BAL readouts (total cells, protein, LDH, Amplex Red oxidants, IL-1β, IL-6); type: in vivo
Procedure: FIG. 1 illustrates an exemplary T3 administration regime in mice. WT mice were nebulized with triiodothyronine (T3, 40 μg/kg) for 1 day or 3 days or propylthiouracil (PTU, 100 μg/kg) for 3 days prior to 72 h continuous hyperoxia exposure.
FIGS. 2A-2F illustrate the finding that T3 attenuates hyperoxia-induced lung injury, inflammation, and oxidants in WT mice. WT mice were nebulized with T3 (40 μg/kg) for 1 day or 3 days, or PTU (100 μg/kg) for 3 days prior to 72 h continuous hyperoxia exposure. Control mice were exposed to room air (RA). […] IL-1β (FIG. 2E) and IL-6 (FIG. 2F) were detected by ELISA in BALF. The values are expressed as mean±SD and analyzed by Mann-Whitney test n=6 for each group). *p<0.05, vs RA; **p<0.05, vs hyperoxia without pretreatment.
WT, PINK1−/−, and Parkin−/− mice were nebulized with T3 (40 μg/kg) for 3 days or no pretreatment prior to 72 h continuous hyperoxia exposure. […] IL-1β (FIG. 4E) and IL-6 (FIG. 4F) were detected by ELISA in BALF. The values are expressed as mean±SD and analyzed by Mann-Whitney test n=6 for each group). *p<0.05, vs WT no T3 RA; **p<0.05, vs WT no T3 hyperoxia; #p<0.05, vs corresponding RA; ##p<0.05, vs corresponding no T3 hyperoxia.
FIGS. 6A-6F illustrate the finding that GC-1 pretreatment prevents hyperoxia-induced lung injury and accelerates recovery. WT mice were orally gavaged with GC-1 (40 μm/kg) and then exposed to RA or to continuous hyperoxia for 72 h (H3). Recovery phase was initiated after 72 h hyperoxia (R1-3, 1, 2 3 and 6 days post-hyperoxia). Cells recovered from BAL were counted as BAL total cell counts (FIG. 6A). […] IL-6 (FIG. 6E) and IL-1β (FIG. 6F) was detected by ELISA in BALF. The values are expressed as mean±SD and analyzed by Mann-Whitney test (n=4 for each group). *p<0.05 versus no GC-1 RA; **p<0.05 versus no GC-1 H3; #p<0.05 versus corresponding no GC-1.

mouse lungs = experiment: Immunoblot of lung lysates from mice exposed to hyperoxia; type: in vivo
Procedure: FIG. 3 illustrates the finding that T3 pretreatment increases mitochondrial biogenesis/fusion/mitophagy and decreases ER stress & apoptosis. WT mice were nebulized with T3 (40 μg/kg) for 1 day or 3 days or PTU (100 μg/kg) for 3 days prior to 72 h continuous hyperoxia exposure. Lysates were isolated and immunoblotted against antibodies as listed. ([…] was used as protein loading control.
FIG. 5 illustrates the finding that T3 pretreatment increased Mito anti-ROS potential, biogenesis and mitophagy via PINK 1. WT and PINK1-KO mice were nebulized with T3 (40 μg/kg) for 3 days prior to 72 h continuous hyperoxia exposure. Lysates were isolated and immunoblotted against antibodies as listed. β-Actin was used as protein loading control.
FIG. 7 illustrates the finding that GC-1 pretreatment decreased hyperoxia-induced Mito dysfunction, ER stress and apoptosis. WT mice were orally gavaged with GC-1 (40 μm/kg) and exposed to RA or to hyperoxia for 72 h (H3). A time course of recovery after 72 h hyperoxia is shown (R1-3, 1, 2 3 and 6 days post-hyperoxia). Lysates from mouse lungs were immunoblotted against the listed antibodies (Abs).
FIG. 8 illustrates the finding that GC-1 pretreatment increases Tie2 activation and decreases Ang2. WT mice were orally gavaged with GC-1 (40 μm/kg) and exposed to RA or to hyperoxia for 72 h (H3). A time course of recovery after 72 h hyperoxia is shown (R1-3, 1, 2 3 and 6 days post-hyperoxia). Lysates from mouse lungs were immunoblotted against the listed antibodies.

[2] = WT mice orally gavaged with GC-1 (40 μm/kg), 72 h hyperoxia and recovery, FIG. 8
[3] = WT mice nebulized with T3 (40 μg/kg) for 1 day or 3 days prior to 72 h hyperoxia, FIG. 3

SMILES	hyperoxia-induced lung injury ([1]; WT mice orally gavaged with GC-1 (40 μm/kg), then 72 h continuous hyperoxia (H3), FIGS. 6A-6F)	recovery after hyperoxia ([1]; WT mice orally gavaged with GC-1 (40 μm/kg), recovery phase 1, 2 3 and 6 days post-hyperoxia)	hyperoxia-induced Mito dysfunction, ER stress and apoptosis (mouse lungs; WT mice orally gavaged with GC-1 (40 μm/kg), 72 h hyperoxia and recovery, FIG. 7)	Ang2 (mouse lungs; [2])	Tie2 activation (mouse lungs; [2])	hyperoxia-induced oxidants ([1]; WT mice nebulized with T3 (40 μg/kg) for 1 day or 3 days prior to 72 h continuous hyperoxia, Amplex Red, BAL fluid)	hyperoxia-induced lung injury ([1]; WT mice nebulized with T3 (40 μg/kg) for 1 day or 3 days prior to 72 h continuous hyperoxia, FIGS. 2A-2F)	hyperoxia-induced inflammation ([1]; WT mice nebulized with T3 (40 μg/kg) for 1 day or 3 days prior to 72 h continuous hyperoxia, IL-1β, IL-6 in BALF)	mediator of T3 effects against hyperoxia-induced lung injury ([1]; WT, PINK1−/− and Parkin−/− mice nebulized with T3 (40 μg/kg) for 3 days prior to 72 h hyperoxia, FIGS. 4A-4F)	Mito anti-ROS potential, biogenesis and mitophagy (mouse lungs; WT and PINK1-KO mice nebulized with T3 (40 μg/kg) for 3 days prior to 72 h hyperoxia, via PINK 1, FIG. 5)	ER stress & apoptosis (mouse lungs; [3])	mitochondrial biogenesis/fusion/mitophagy (mouse lungs; [3])
Cc1cc(OCC(=O)O)cc(C)c1Cc1ccc(O)c(C(C)C)c1 [GC-1, 2-(4-(4-hydroxy-3-isopropylbenzyl)-3,5-dimethylphenoxy)acetic acid]	prevents	accelerates	decreased	decreases	increases	–	–	–	–	–	–	–
N[C@@H](Cc1cc(I)c(Oc2ccc(O)c(I)c2)c(I)c1)C(=O)O [T3, (S)-2-amino-3-[4-(4-hydroxy-3-iodophenoxy)-3,5-diiodophenyl]propanoic acid]	–	–	–	–	–	attenuates	attenuates	attenuates	PINK 1, not Parkin, mediates T3 effects	increased	decreases	increases
